Assay results from paper PMC1241435 (Environmental Health Perspectives, 2003).

Key:
FMO I = biological target: T1, FMO I (Homo sapiens, UniProt Q01740); assay: sulfoxide formation by microsomes of cells expressing the recombinant enzyme; assay type: cell-based
T1 sequence (Q01740 2-532): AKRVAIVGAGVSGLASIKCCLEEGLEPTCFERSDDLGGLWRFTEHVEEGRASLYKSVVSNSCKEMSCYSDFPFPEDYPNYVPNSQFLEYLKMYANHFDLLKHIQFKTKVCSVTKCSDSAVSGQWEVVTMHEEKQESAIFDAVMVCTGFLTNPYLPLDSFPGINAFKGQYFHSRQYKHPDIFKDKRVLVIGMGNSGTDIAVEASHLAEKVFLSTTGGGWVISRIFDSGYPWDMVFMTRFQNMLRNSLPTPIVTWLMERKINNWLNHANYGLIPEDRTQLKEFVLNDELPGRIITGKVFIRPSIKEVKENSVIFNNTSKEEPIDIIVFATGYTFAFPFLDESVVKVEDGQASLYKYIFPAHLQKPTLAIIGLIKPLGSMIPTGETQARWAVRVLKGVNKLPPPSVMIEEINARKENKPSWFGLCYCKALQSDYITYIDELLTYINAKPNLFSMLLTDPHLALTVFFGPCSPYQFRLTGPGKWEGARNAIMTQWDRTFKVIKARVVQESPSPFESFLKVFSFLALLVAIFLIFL

CYP 1A1 = biological target: T2, CYP 1A1 (Homo sapiens, UniProt P04798); assay: as above; assay type: cell-based
T2 sequence (P04798 1-512): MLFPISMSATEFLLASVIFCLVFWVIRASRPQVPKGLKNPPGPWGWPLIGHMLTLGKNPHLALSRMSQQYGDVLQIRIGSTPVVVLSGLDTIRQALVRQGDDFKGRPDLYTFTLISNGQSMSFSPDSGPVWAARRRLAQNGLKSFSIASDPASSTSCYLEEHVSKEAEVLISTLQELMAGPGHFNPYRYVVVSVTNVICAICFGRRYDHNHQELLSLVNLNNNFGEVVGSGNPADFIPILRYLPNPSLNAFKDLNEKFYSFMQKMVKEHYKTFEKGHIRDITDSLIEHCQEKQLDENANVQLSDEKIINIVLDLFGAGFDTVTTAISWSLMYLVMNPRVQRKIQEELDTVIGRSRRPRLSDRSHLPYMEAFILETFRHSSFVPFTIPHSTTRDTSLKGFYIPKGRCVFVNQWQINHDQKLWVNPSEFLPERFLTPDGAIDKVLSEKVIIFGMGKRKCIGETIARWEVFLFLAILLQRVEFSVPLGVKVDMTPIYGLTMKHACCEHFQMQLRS

## COP(=S)(OC)Oc1ccc(SC)c(C)c1 [fenthion, O,O-dimethyl-O-(4-methylmercapto)-3-methylphenylthio-phosphate]
FMO I
  sulfoxide formation by microsomes of cells expressing the recombinant enzyme: 62.4 nmol/min/mg protein
CYP 1A1
  sulfoxide formation by microsomes of cells expressing the recombinant enzyme: 3.6 nmol/min/mg protein
